“Also recorded” adds a separate entry of the source.
How the values were obtained:
[1] = system: TI-2 independent B cell activation; test: In vivo thymus-independent (TI-2) B cell activation; conditions: C57/B6 mice, 100 mg/kg daily day 0 through 5, TNP-Ficoll, serum day 6
[2] = biological target: JAK3 kinase (Homo sapiens (Human), UniProt P52333); test: Mass spectrometry for Janus-3 kinase (JAK3); format: binding; conditions: 3 hrs at 10× excess, tryptic digest
Description: JAK3 kinase (33 pmols; Invitrogen) was incubated with (I-7) (327 pmols) for 3 hrs at 10× excess prior to tryptic digestion. Iodoacetamide was used as the alkylating agent after compound incubation. For tryptic digests a 5 ul aliquot (5.5 pmols) was diluted with 15 ul of 0.1% TFA prior to micro C18 Zip Tipping directly onto the MALDI target using alpha cyano-4-hydroxy cinnamic acid as the matrix (5 mg/ml in 0.1% TFA:Acetonitrile 50:50).
As depicted in FIG. 11, the expected peptide ([…]) to be modified was immediately evident as the largest peak at MH+ of 1725.88. This is the mass to be expected when compound I-7, with an adduct mass of 345.16, is added to the peptide mass of 1380.70. […] There was also evidence for a number of other modified peptides, however, their signals were low.
To further verify the presence of the modified peptides with compound I-7, the peptides at MH+ of 1725.88 and 1118.55 were subjected to PSD (MS/MS) analysis. A correlational analysis with the homosapien database identified the correct peptides as being modified by I-7.
For tryptic digests the instrument was set in Reflectron mode with a pulsed extraction setting of 2200. Calibration was done using the Laser Biolabs Pep Mix standard ([…], 1296.69, 1672.92, 2093.09, 2465.20). […]

[3] = biological target: T1, BTK (Homo sapiens (Human), UniProt Q06187); test: BTK occupancy in Ramos cells with I-7 and probe I-215 using streptavidin beads; format: cell-based; conditions: 1 hour, higher concentrations of I-7 (0.1, 0.05 μM)
Description: Ramos cells were incubated with 0.1, 0.05, 0.01, or 0.001 μM I-7 in serum free media for 1 hour at 37° C. The cells were pelleted by centrifugation and lysed in Cell Extraction buffer (Invitrogen) for 10 minutes on ice, centrifuged (10 minutes at 14,000 rpm) and the supernatant was collected. Cell lysates were incubated with 1 μM I-215 for 1 hour at room temperature, then incubated with streptavidin-coupled agarose beads (ThermoFisher) overnight at 4° C. The beads were washed three times with lysis buffer and the bound proteins were boiled off the beads at 95° C. for 5 minutes in 4×LDS Sample Buffer. The amount of BTK associated with the probe I-215 was assessed by BTK western blot. All values were normalized to the DMSO-treated sample which is set to 100%.

[4] = biological target: T1, BTK; test: BTK occupancy from in vitro samples by ELISA (Ramos cells); format: cell-based; conditions: ELISA with probe I-215
Description: In order to determine the amount of free BTK in cell or tissue lysates, an ELISA protocol was employed that utilizes a biotinylated probe compound that binds only to free, unoccupied BTK. The conjugated biotin is captured on a streptavidin-coated ELISA plate and detected with a mouse anti-BTK antibody (Becton Dickinson, Franklin Lakes, N.J., USA) and a secondary goat anti-mouse HRP antibody (Zymed, South San Francisco, Calif., USA).
All samples were prepared with equal concentrations of Biorad lysis buffer (Hercules, Calif., USA), 0.5% bovine serum albumin in PBS with 0.05% Tween-20 to give a final concentration of 1 μM I-215. Samples were incubated in a mixing plate for 1 hr at room temperature while shaking to allow probe compound I-215 to bind to free BTK. After incubation with I-215, samples were added to a washed, streptavidin-coated ELISA plate (Pierce, Rockford, Ill., USA) and incubated for 1 hr at room temperature while shaking. The plate was then washed with PBS containing 0.05% Tween-20 using an automatic plate washer. Anti-BTK antibody was prepared at 1:1000 dilution in 0.5% BSA in PBS (0.05% Tween-20) and added to the ELISA plate. The plate was incubated for 1 hr at room temperature while shaking. The plate was washed as described above and the secondary HRP antibody was prepared at 1:5000 dilution in 0.5% BSA in PBS (0.05% Tween-20). The plate was incubated and washed as described above. TMB was added to the plate, and OD650 was monitored until reaching 1 OD unit. The reaction was then stopped with addition of H2SO4. The plate was analyzed using Gen 5 software, and a 4 Parameter Logistic curve was employed to quantitate samples. Recombinant BTK (Invitrogen, Carlsbad, Calif., USA) was used for the standard curve.
A concentration designated as “A” is greater than 1 nM; a concentration designated as “B” is greater than 10 nM; and a concentration designated as “C” is greater than 50 nM.

T1 sequence (Q06187 whole entry): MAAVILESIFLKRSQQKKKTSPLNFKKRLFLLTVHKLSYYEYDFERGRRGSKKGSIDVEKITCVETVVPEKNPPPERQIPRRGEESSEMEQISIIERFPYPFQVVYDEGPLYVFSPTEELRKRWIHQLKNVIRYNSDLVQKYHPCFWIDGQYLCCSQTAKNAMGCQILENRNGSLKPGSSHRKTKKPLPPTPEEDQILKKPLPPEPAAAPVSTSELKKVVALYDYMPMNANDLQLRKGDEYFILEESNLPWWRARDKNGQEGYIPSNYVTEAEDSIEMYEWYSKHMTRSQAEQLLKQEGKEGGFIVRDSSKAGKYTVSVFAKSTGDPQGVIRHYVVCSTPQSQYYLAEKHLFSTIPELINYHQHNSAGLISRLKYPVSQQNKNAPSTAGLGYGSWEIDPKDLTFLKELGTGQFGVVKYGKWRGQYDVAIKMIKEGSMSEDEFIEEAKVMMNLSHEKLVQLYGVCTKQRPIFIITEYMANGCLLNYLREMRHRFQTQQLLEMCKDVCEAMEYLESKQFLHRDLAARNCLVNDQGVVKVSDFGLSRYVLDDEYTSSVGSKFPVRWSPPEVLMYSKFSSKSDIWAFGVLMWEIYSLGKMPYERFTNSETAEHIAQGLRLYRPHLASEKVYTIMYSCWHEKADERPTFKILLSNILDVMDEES
JAK3 kinase, sequence (P52333 whole entry): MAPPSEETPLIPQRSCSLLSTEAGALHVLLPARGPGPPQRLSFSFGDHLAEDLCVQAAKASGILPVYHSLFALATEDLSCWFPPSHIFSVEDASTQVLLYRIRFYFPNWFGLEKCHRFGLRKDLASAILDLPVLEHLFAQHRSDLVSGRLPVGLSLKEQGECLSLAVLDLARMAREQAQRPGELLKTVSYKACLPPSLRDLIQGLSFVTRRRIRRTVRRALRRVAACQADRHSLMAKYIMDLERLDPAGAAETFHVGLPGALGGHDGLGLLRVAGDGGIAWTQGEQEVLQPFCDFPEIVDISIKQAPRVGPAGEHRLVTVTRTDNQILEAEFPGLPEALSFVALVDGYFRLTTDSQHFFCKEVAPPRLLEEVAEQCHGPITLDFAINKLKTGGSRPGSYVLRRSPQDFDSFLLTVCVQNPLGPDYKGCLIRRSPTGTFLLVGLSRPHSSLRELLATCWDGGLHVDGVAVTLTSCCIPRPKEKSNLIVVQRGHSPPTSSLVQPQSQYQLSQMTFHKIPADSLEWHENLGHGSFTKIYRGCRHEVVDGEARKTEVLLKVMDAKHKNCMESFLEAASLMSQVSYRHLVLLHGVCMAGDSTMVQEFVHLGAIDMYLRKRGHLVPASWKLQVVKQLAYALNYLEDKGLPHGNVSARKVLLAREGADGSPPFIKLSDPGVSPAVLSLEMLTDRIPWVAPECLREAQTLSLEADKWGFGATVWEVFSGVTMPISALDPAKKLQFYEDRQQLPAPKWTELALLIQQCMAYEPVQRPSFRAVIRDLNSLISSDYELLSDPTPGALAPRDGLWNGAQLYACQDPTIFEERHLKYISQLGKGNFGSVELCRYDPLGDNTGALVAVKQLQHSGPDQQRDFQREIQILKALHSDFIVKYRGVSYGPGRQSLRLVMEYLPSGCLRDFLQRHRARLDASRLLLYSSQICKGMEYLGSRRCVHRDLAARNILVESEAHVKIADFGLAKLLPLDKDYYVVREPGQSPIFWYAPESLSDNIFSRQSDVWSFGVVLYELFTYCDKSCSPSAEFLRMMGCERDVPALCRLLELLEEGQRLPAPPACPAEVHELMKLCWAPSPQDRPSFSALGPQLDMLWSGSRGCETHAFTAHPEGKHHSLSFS

BTK occupancy (BTK available to probe I-215) [3]: fully occupied
>50% occupancy (concentration at which >50% of BTK is occupied) [4]: A (greater than 1 nM)
>90% occupancy (concentration at which >90% of BTK is occupied) [4]: B (greater than 10 nM)
Structure (SMILES): C=CC(=O)Nc1cccc(Nc2nc(Nc3ccccc3)ncc2C)c1 [Compound I-7, N-(3-(5-methyl-2-(phenylamino)pyrimidin-4-ylamino)phenyl) acrylamide]
% Inhibition IgG3 (1:100) [1]: 57%
% Inhibition IgM (1:1600) [1]: 48%
covalent modification of JAK3 (Cys909, peptide LVMEYLPSGCLR) by mass spectrometry [2]: not entirely complete; also recorded: covalent modification

Reference: patent US9987276B2 (Celgene CAR LLC, priority 2008, dated 2018)
